SMILES strings stand for the structures.

What is called inhibition is how much of the control response was suppressed.

In the assay the target is T1, α4·IgG heavy chain-β1·IgG heavy chain chimeric protein heterodimer complex (chimeric protein of VLA-4 and IgG heavy chain) (Homo sapiens, UniProt P05556+P13612).
T1 construct: a chimeric molecule being composed with the extracellular region of integrin α4 and an immunoglobulin heavy chain; a chimeric molecule being composed with the extracellular region of integrin β1 and an immunoglobulin heavy chain; made in house; unpurified culture supernatant used in the assay
The assay is described as follows: binding of α4·IgG heavy chain-β1·IgG heavy chain chimeric protein heterodimer complex to solid phase CS-1-IgG (absorbance at 490 nm). The settings on record: for inhibition at 50 µg/mL: Concentration 50 µg/ml, read-out: Inhibition rate (%). The protocol: At first, according to the said report (Humphries, M. J. et al., J. Biol. Chem., 262, 6886-6892 (1987)), the peptide fragment of sequence No. 13 (CS-1 peptide) was bound to rabbit IgG (Sigma), to prepare CS-1-IgG. The CS-1-IgG was diluted by PBS(-), and supplied in a 96-well immunoplate (NUNC) by 100 µl/well, and allowed to stand at 4°C for 16 hours, to be formed as a solid phase on the plate.
After completion of standing, the surface of the plate was washed with PBS(-) twice and treated with 1% BSA(heat-denatured at 80°C for 10 minutes)-PBS solution (300 µl/well) at 4°C for 3 hours to block the nonspecific reaction. Then, the solid phase CS-1-IgG and the CHO culture supernatant (100 µl) containing α4·IgG heavy chain-β1·IgG heavy chain chimeric protein heterodimer complex were reacted with each other at 30°C for 3 hours. The non-bound α4·IgG heavy chain-β1·IgG heavy chain chimeric protein heterodimer complex was removed by washing with 0.1% BSA-containing TBS buffer (150 mM NaCl, 25 mM Tris-HCl, 1 mM MnCl2, pH 7.4) twice, and the bound α4·IgG heavy chain-β1·IgG heavy chain chimeric protein heterodimer complex was detected by biotin labeled anti-human IgG antibody (Vector) as the primary antibody and avidin labeled horseradish peroxidase (Sigma) used as the secondary anti body. The surface of the plate was washed with the TBS buffer. Orthophenylenediamine was added as a substrate to it for color development, and the absorbance at 490 nm were measured.
The all peptides were synthesized by a peptide synthesizer. The peptide and 100 µl of CHO cultured supernatant solution containing α4·IgG heavy chain-β1·IgG heavy chain chimeric protein heterodimer complex were mixed at room temperature for 20 minutes, and the binding to CS-1-IgG was determined according to the method in Example 4.
Reagents and the compounds stated in literature were picked up at random, adjusted to a final concentration of 50 µg/ml, and added to the binding assay system of Example 4. Compounds showing inhibitory activity were obtained. […]

T1 sequence (P13612 35-977 limits assumed, change not shown): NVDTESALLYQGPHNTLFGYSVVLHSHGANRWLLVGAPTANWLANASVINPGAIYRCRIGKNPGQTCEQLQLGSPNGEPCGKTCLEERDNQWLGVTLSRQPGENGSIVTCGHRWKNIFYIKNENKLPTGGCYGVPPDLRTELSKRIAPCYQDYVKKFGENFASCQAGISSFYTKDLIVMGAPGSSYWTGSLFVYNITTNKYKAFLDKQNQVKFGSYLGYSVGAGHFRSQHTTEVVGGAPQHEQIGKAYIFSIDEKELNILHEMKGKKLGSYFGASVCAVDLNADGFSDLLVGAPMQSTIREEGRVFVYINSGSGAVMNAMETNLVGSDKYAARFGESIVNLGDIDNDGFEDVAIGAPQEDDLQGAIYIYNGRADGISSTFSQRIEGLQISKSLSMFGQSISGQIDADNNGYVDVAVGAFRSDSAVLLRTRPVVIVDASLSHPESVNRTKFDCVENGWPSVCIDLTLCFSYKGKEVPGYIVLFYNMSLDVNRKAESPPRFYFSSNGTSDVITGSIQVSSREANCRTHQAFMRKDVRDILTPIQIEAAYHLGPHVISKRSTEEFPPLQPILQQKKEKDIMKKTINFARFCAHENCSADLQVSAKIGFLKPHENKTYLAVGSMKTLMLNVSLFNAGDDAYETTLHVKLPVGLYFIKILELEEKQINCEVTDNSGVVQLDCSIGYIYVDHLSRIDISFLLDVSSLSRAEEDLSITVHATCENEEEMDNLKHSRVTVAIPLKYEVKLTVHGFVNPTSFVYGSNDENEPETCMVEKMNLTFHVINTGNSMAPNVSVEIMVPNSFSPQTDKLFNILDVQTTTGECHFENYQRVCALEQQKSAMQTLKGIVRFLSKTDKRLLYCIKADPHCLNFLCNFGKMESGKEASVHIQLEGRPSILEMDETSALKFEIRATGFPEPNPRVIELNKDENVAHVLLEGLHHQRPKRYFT
T1 sequence (P05556 21-728 limits assumed, change not shown): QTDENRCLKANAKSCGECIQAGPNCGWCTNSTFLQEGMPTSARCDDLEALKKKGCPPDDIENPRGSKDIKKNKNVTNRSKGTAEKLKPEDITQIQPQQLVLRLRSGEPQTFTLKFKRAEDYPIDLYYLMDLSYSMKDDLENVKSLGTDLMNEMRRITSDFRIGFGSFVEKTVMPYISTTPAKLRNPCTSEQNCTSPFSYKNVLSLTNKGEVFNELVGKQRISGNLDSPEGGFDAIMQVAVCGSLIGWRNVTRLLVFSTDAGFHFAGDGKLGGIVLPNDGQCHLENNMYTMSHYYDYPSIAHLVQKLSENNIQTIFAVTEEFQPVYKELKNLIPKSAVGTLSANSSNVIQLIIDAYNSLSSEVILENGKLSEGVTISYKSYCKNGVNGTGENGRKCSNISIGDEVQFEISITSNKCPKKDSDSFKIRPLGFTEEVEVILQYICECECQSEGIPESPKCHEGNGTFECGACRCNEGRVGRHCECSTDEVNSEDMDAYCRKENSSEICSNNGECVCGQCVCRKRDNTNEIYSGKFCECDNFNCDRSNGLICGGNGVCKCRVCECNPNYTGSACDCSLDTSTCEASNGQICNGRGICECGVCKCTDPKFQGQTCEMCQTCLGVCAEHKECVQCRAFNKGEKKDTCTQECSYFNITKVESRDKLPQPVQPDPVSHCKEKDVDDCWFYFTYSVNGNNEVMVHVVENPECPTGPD
T1 sequence (P01857 99-330 partner limits assumed): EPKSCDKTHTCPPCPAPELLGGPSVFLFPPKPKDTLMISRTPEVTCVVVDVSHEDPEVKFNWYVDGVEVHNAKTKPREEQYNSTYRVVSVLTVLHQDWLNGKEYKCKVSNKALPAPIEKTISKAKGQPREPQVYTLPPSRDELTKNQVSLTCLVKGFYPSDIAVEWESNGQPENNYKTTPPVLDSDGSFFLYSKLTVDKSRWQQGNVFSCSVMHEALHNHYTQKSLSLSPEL

With `O=C(O)CN(CCN(CC(=O)O)CC(=O)O)CC(=O)O` [EDTA], where the note is “5 mM, Fig. 1”, the “inhibition of binding to CS-1 peptide” value is reported as “almost perfectly inhibited”.

In the case of `C[C@H](CCC(=O)O)[C@H]1CC[C@H]2[C@@H]3C(=O)C[C@@H]4CC(=O)CC[C@]4(C)[C@H]3CC(=O)[C@]12C` [Dehydrocholic acid], the inhibition at 50 µg/mL was determined as 39.5%.

For the molecule `O=c1ccc2ccc(O)cc2o1` [7-Hydroxycoumarin], the inhibition at 50 µg/mL was 87.5%.

For the origin of these results see EP0917878A1, “REMEDIES FOR HEPATITIS” (TORAY INDUSTRIES, INC., priority 1997, dated 1998).
